Reference: US20080194585A1, “Fungicidal Pyrazine Derivatives” (priority 2005, published 2008)
Marks after values point to notes of the source that are not given here.

Assays:
Plasmopara viticola = assay: Test D: grape downy mildew, spray after inoculation of grape seedlings; type: in vivo
From the text: Upon removal, disease ratings were made. […] A dash (-) indicates no test results.

Phytophthora infestans = assay: whole plant or invertebrate; type: in vivo
Septoria tritici = assay: Test J: wheat leaf blotch, preventive spray on wheat seedlings; type: in vivo; details: 40 ppm (marked *); 100 = 100% disease control, 0 = no control
From the text: A dash (-) indicates no test results.

[1] = tested on: Puccinia recondita f. sp. tritici; assay: Test K: wheat leaf rust, preventive spray on wheat seedlings
Botrytis cinerea = assay: Test E: tomato botrytis, preventive spray on tomato seedlings
Septoria nodorum = assay: Test H: wheat glum blotch, preventive spray on wheat seedlings
Protocol: (the causal agent of wheat glum blotch) and incubated in a saturated atmosphere at 20° C. for 48 h, and then moved to a growth chamber at 22° C. for 5 days, after which disease ratings were made.

[2] = tested on: Erysiphe graminis f. sp. tritici; assay: Test L: wheat powdery mildew, preventive spray on wheat seedlings
Pythium aphanidermatum = assay: Test A: bluegrass pythium blight, preventive spray on bluegrass seedlings; details: 40 ppm (marked *); 100 = 100% disease control, 0 = no control
Rhizoctonia oryzae = assay: Test G: turf brown patch, preventive spray on creeping bent grass seedlings; details: 100 = 100% disease control, 0 = no control
Protocol: (the causal agent of turf brown patch) and incubated in a saturated atmosphere at 27° C. for 24 h, and then moved to a growth chamber at 27° C. for 5 days, after which disease ratings were made.

[3] = tested on: Colletotrichum orbiculare; assay: Test B: cucumber Colletotrichum anthracnose, preventive spray on cucumber seedlings; details: 100 = 100% disease control
fusarium graminearium = assay: Test I: wheat head scab, preventive spray on wheat seedlings; details: 200 ppm; 100 = 100% disease control, 0 = no control relative to controls
Protocol: (the causal agent of wheat head scab) and incubated in a saturated atmosphere at 20° C. for 72 h, and then moved to a growth chamber at 22° C. for 5 days, after which disease ratings were made.

[4] = 40 ppm (marked *), 100 = 100% disease control, 0 = no control
[5] = 40 ppm (marked *), 0 = no control
[6] = 200 ppm, 100 = 100% disease control, 0 = no control relative to controls

| Structure (SMILES) | Test D disease control rating (Plasmopara viticola; [4]) | Test F disease control rating (Phytophthora infestans; [4]) | Test J disease control rating (Septoria tritici) | Test K disease control rating [1, 4] | Test E disease control rating (Botrytis cinerea; [4]) | Test H disease control rating (Septoria nodorum; [4]) | Test L disease control rating [2, 4] | Test A disease control rating (Pythium aphanidermatum) | Test G disease control rating (Rhizoctonia oryzae; 40 ppm (marked *)) | Test B disease control rating [3, 5] | other results |
| --- | --- | --- | --- | --- | --- | --- | --- | --- | --- | --- | --- |
| O=c1c(-n2cccn2)nc(Cl)c(-c2c(F)cccc2F)n1Cc1ccccc1F [compound 336] | 0* % | 0* % | 100* % | 100* % | 99* % | 99* % | 98* % | 0* % | 41* % | 0* % |  |
| Cc1ccn(-c2nc(Cl)c(-c3c(F)cc(F)cc3F)n(-c3ccccc3F)c2=O)n1 [compound 355] | 0* % | 0* % | 100* % | 99* % | 99* % | 100* % | 57* % | 0* % | 66* % | 99* % |  |
| C#CCNC(=O)c1nc(Cl)c(-c2c(F)cc(F)cc2F)n(CC(C)CC)c1=O (centres unmarked) [compound 416] |  |  |  |  |  |  |  |  |  |  | Test I disease control rating (fusarium graminearium): 0%; Test K disease control rating [1, 6]: 100%; Test E disease control rating (Botrytis cinerea; [6]): 99%; Test H disease control rating (Septoria nodorum; [6]): 100%; Test L disease control rating [2, 6]: 99%; Test B disease control rating ([3]; 200 ppm, 0 = no control relative to controls): 99% |
| Cc1ccn(-c2nc(Cl)c(-c3c(F)cc(F)cc3F)n(-c3cccc(F)c3F)c2=O)n1 [compound 370] | 0* % | 0* % | 100* % | 100* % | 99* % | 100* % | 96* % | 0* % | 92* % | 100* % |  |
| CC(C)Cn1c(-c2ccc(C(F)(F)F)cc2)c(Cl)nc(-n2cccn2)c1=O [compound 36] |  |  |  |  |  |  |  |  |  |  | Test D disease control rating (Plasmopara viticola; 200 ppm): 0%; Test F disease control rating (Phytophthora infestans; 200 ppm): 0%; Test K disease control rating ([1]; 200 ppm): 0%; Test E disease control rating (Botrytis cinerea; 200 ppm): 0%; Test H disease control rating (Septoria nodorum; 200 ppm): 0%; Test L disease control rating ([2]; 200 ppm): 0% |
| O=c1c(-n2cccn2)nc(Cl)c(-c2c(F)cc(F)cc2F)n1-c1cccc(F)c1F [compound 369] | 0* % | 0* % | 100* % | 100* % | 99* % | 100* % | 98* % | 0* % | 99* % | 100* % |  |
| O=c1c(-n2cccn2)nc(Cl)c(-c2c(F)cc(F)cc2F)n1-c1ccc(F)c(F)c1 [compound 365] | 16* % | 0* % | 100* % | 100* % | 98* % | 100* % | 96* % | 0* % | 99* % | 99* % |  |
| Cc1ccn(-c2nc(Cl)c(-c3c(F)cc(F)cc3F)n(-c3cc(F)cc(F)c3)c2=O)n1 [compound 368] | 0* % | 0* % | 100* % | 100* % | 99* % | 100* % | 99* % | 0* % | 99* % | 99* % |  |
| Cc1ccn(-c2nc(Cl)c(-c3c(F)ccc(F)c3F)n(-c3ccccc3)c2=O)n1 [compound 358] | 0* % |  | 100* % | 100* % | 99* % | 100* % | 91* % | 0* % | 92* % | 0* % |  |
| CC(C)Cn1c(-c2ccc(OC(F)(F)F)cc2)c(Cl)nc(-n2cccn2)c1=O [compound 38] |  |  |  |  |  |  |  |  |  |  | Test D disease control rating (Plasmopara viticola; 200 ppm): 0%; Test F disease control rating (Phytophthora infestans; 200 ppm): 0%; Test K disease control rating ([1]; 200 ppm): 0%; Test E disease control rating (Botrytis cinerea; 200 ppm): 0%; Test H disease control rating (Septoria nodorum; 200 ppm): 0%; Test L disease control rating ([2]; 200 ppm): 0% |
| Cc1ccn(-c2nc(Cl)c(-c3c(F)cc(F)cc3F)n(-c3ccc(F)c(F)c3)c2=O)n1 [compound 366] | 0* % | 0* % | 96* % | 100* % | 99* % | 100* % | 93* % | 0* % | 89* % | 99* % |  |
| O=c1c(-n2cccn2)nc(Cl)c(-c2c(F)cc(F)cc2F)n1-c1ccc(Cl)cc1 [compound 371] | 0* % | 0* % | 100* % | 100* % | 99* % | 100* % | 98* % | 0* % | 99* % | 99* % |  |
| O=c1c(-n2cccn2)nc(Cl)c(-c2c(F)cc(F)cc2F)n1-c1cc(F)cc(F)c1 [compound 367] | 0* % | 0* % | 99* % | 100* % | 99* % | 100* % | 99* % | 0* % | 99* % | 100* % |  |
| Cc1ccn(-c2nc(Cl)c(-c3c(F)cc(F)cc3F)n(-c3cccc(F)c3)c2=O)n1 [compound 356] | 0* % | 0* % | 100* % | 100* % | 100* % | 100* % | 100* % | 0* % | 93* % | 99* % |  |
| COc1ccc(-c2c(Cl)nc(-n3cccn3)c(=O)n2CC(C)C)cc1 [compound 37] |  |  |  |  |  |  |  |  |  |  | Test D disease control rating (Plasmopara viticola; 200 ppm): 0%; Test F disease control rating (Phytophthora infestans; 200 ppm): 0%; Test K disease control rating ([1]; 200 ppm): 89%; Test E disease control rating (Botrytis cinerea; 200 ppm): 100%; Test H disease control rating (Septoria nodorum; 200 ppm): 100%; Test L disease control rating ([2]; 200 ppm): 0% |
| Cc1ccn(-c2nc(Cl)c(-c3c(F)cc(F)cc3F)n(-c3ccc(Cl)cc3)c2=O)n1 [compound 372] | 0* % | 0* % | 100* % | 100* % | 99* % | 100* % |  | 0* % |  | 100* % | Test L disease control rating ([2]; 200 ppm, 100 = 100% disease control, 0 = no control): 98%; Test G disease control rating (Rhizoctonia oryzae; 200 ppm): 82% |
